Laboratory results: US20240207292A1, “BORONIC ACID COMPOUNDS, COMPOSITIONS AND METHODS” (Trustees of Tufts College, priority 2021, published 2024)
Like-named read-outs stand apart in the source and are kept apart here.

Assays:
recombinant human FAP = recombinant human FAP (Homo sapiens (Human), UniProt Q12884); assay: In vitro enzyme IC50 assay, FAP (Example 16); format: biochemical; details: 10 min preincubation at 25° C.; Z-Gly-Pro-AMC
Method: Biological Materials: For the in vitro IC50 determination assays, recombinant human DPPIV, DPP9, FAP, and PREP were purchased from R&D Systems, and DPP8 was from Biomol International. Buffer systems used were A (25 mM Tris, pH 8.0), B (50 mM Tris, pH 7.5), C (50 mM Tris, 140 mM NaCl, pH 7.5), D (25 mM Tris, 250 mM NaCl, pH 7.5), and E (20 mM Tris, 20 mM KCl, pH 7.4). […] Substrate Specificity Assay. Peptide libraries (0.21 mM) were incubated for 24 h with 1 nM FAP in buffer E at 37° C. The reaction was quenched by the addition of 1.2 N HCl. The samples were analyzed by reverse-phase HPLC-MS on a Thermo Finnigan LCQ Duo, quantifying the peaks in the resulting base peak chromatograms. Relative cleavage values were determined by comparing the postquench abundance of intact peptides to those in the initial library.
In Vitro Enzyme IC50 Assays. Enzymatic activity of DPPIV, DPP8, DPP9, FAP, and PREP was measured at 25° C. on a Molecular Devices M2e multidetection microtiter plate reader, monitoring the fluorescence at an excitation wavelength of 380 nm and an emission wavelength of 460 nm. The substrate was either H-Gly-Pro-AMC for the DPPIV, DPP8, and DPP9 assays or Z-Gly-Pro-AMC for the FAP and PREP assays. […] The final enzyme concentrations were 0.1, 0.8, 0.4, 1.2, and 0.6 nM for DPPIV, DPP8, DPP9, FAP, and PREP, respectively. […] Those prepared in pH 2.0 solution were preincubated at 25° C. for 4 h prior to dilution. Immediately prior to the commencement of the experiment, the 100 mM stocks were further diluted to 10^-3 M in the appropriate assay buffer, from which 1:10 serial dilutions were prepared. All inhibitors were tested in triplicate.

[1] = target: recombinant human fibroblast activation protein (FAP) (Homo sapiens (Human), UniProt Q12884); assay: In vitro assay fibroblast activation protein IC50 (Example 21); format: biochemical
Method: (§1) The purpose of this assay is to determine the IC50 of various inhibitors against recombinant human dipeptidyl peptidase IV (DPPIV), fibroblast activation protein (FAP) or prolyl oligopeptidase (PREP).
(§2) The assays are conducted in the following steps: • 1 Dissolve the compound in DMSO to a final concentration of 100 mM. From this, prepare a 1 mM stock at pH 7.5 in 50 mM Tris, 140 mM NaCl Buffer (FAP)/pH 7.5 in 25 mM Tris, 250 mM NaCl Buffer/[…]. • 2. Serial dilute (1:10) the 1 mM compound stocks prepared previously into the appropriate assay buffer (FAP: 50 mM Tris, 140 mM NaCl, pH 7.5/PREP: 25 mM Tris, 0.25 M NaCl, pH 7.5/DPPIV: 25 mM Tris, pH 8.0) to one row of a 96-well plate. • 3. […] Dilute the enzymes into their appropriate assay buffers. The final enzyme concentrations should be 0.1, 1.2, and 0.6 nM for DPPIV, FAP and PREP respectively. Add 180 μL to each well needed in columns 2-10. Column 1(A,B,C) should be prepared with 200 μl of appropriate assay buffer as control. Column 1(D,E,F,G,H) should be prepared with 20 μl of appropriate assay buffer and 180 ul enzyme as no inhibitor control. • 5. Add 20 μL of the compound of interest from the dilution plate prepared in step 2 to columns 2-10 of the assay plate where appropriate. Each sample should be tested in triplicate. Allow this to incubate for 10 minutes at room temperature, shaking the plate for the first two minutes. • 6. Add 10 μL of 20× substrate prepared in step 3 to each well and allow this to incubate for 15 minutes at room temperature, shaking the plate for the first two minutes. • 7. Read the fluorescence at λex: 380, λem: 460. (DPcore=[dAla|dSer|Gly]-[boroPro|Pro-nitrile], XXaa=alpha-amino acid)

[2] = Degradation in aqueous solution of pH about 3 during HPLC purification and lyophilization; details: during HPLC purification and subsequent lyophilization
[3] = target: recombinant human dipeptidyl peptidase IV (DPPIV) (Homo sapiens (Human), UniProt P27487); assay: In vitro assay dipeptidyl peptidase IV IC50 (Example 21); format: biochemical
Method: as §1, §2

[4] = target: recombinant human prolyl oligopeptidase (PREP) (Homo sapiens (Human), UniProt P48147); assay: In vitro assay prolyl oligopeptidase IC50 (Example 21); format: biochemical
Method: as §1, §2

recombinant human fibroblast activation protein (FAP), sequence (Q12884 whole entry): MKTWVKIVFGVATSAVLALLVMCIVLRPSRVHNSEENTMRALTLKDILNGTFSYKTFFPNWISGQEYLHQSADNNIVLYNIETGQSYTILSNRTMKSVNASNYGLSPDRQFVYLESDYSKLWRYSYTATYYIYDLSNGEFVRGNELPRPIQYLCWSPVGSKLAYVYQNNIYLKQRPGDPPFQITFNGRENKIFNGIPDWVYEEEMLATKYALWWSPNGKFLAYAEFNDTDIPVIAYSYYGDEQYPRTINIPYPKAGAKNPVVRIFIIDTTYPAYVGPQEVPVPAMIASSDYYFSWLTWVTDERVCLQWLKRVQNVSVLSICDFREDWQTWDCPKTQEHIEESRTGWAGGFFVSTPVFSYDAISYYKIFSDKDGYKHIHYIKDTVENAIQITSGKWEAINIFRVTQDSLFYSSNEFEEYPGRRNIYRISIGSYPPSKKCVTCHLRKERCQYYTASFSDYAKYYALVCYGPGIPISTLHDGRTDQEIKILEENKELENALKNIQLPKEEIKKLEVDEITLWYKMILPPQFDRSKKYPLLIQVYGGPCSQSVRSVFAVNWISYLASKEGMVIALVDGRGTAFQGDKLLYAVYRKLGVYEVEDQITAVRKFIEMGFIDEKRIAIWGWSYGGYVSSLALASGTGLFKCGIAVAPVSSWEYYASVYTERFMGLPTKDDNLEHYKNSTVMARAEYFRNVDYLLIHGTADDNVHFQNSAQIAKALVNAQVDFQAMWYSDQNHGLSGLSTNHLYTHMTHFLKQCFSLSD
recombinant human FAP, sequence (Q12884 whole entry): as above
recombinant human prolyl oligopeptidase (PREP), sequence (P48147 whole entry): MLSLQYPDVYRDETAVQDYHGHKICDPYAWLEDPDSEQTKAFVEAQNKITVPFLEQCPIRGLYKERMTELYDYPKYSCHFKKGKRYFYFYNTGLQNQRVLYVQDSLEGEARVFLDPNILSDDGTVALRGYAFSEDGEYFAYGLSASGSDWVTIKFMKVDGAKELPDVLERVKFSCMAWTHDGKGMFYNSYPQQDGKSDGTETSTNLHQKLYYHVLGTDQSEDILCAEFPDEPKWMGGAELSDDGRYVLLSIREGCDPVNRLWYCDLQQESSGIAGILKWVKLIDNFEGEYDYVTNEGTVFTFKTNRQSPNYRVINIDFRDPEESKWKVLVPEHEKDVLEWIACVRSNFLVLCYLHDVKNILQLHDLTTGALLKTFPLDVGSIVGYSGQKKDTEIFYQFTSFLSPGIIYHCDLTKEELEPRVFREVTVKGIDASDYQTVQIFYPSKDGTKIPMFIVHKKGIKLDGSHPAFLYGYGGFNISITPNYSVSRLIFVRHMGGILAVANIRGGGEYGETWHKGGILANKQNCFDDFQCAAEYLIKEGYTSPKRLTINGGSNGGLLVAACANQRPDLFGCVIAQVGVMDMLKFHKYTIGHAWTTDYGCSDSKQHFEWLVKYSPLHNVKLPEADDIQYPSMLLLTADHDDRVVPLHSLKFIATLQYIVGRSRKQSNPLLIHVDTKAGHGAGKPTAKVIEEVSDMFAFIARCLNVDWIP
recombinant human dipeptidyl peptidase IV (DPPIV), sequence (P27487 whole entry): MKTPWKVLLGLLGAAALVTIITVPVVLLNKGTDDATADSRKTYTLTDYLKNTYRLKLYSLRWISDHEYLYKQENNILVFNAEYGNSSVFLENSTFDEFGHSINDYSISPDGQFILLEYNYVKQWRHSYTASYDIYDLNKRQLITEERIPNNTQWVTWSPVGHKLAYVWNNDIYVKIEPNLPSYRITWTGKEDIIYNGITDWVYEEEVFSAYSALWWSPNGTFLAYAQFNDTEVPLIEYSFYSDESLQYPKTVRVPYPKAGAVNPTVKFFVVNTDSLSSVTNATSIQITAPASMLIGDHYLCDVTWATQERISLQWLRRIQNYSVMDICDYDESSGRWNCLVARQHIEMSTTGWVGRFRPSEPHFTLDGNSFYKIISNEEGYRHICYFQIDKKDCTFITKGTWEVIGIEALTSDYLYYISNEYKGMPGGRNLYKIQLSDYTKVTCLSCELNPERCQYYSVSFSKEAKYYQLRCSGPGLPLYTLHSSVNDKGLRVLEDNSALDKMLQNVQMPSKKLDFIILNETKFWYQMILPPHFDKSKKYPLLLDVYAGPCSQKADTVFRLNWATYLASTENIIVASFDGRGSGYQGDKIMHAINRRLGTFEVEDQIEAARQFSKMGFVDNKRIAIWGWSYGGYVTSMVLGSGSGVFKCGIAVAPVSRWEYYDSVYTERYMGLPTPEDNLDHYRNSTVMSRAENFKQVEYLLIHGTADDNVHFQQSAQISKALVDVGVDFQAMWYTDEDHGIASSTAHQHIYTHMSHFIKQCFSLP

Compound | IC50 (recombinant human FAP) [nM] | IC50 [1] [nM] | further results
C[C@@H](NC(=O)c1ccc(NNC(=O)CCNC(=O)CN2CCN3CCN(CC(=O)O)CCN(CC2)CC(=O)[O][Cu][O]C(=O)C3)cc1)C(=O)N1CCC[C@H]1B(O)O [compound 6488, DOTA[Cu]-betaAla-HyBz-D-Ala-boroPro] | 34.3 | 34.3 | –
C[C@@H](NC(=O)c1ccc(NC(=O)CN2CCN3CCN(CC(=O)O)CCN(CC2)CC(=O)[O][Cu][O]C(=O)C3)cc1)C(=O)N1CCC[C@H]1B(O)O [6572CU, DOTA[Cu(II)]-PABA-D-Ala-boroPro] | 12.6 | – | –
C[C@@H](NC(=O)c1ccc(NNC(=O)CN2CCN3CCN(CC(=O)O)CCN(CC2)CC(=O)[O][Cu][O]C(=O)C3)cc1)C(=O)N1CCC[C@H]1B(O)O [compound 6481, DOTA[Cu(II)]-HyBz-D-Ala-boroPro] | 10.3 | – | –
C[C@@H](NC(=O)c1ccc(NNC(=O)CNC(=O)CN2CCN(CC(=O)O)CCN(CC(=O)O)CCN(CC(=O)O)CC2)cc1)C(=O)N1CCC[C@H]1B(O)O [6487S, DOTA-Gly-HyBz-D-Ala-boroPro] | 2.1 | – | –
C[C@@H](NC(=O)c1ccc(CNC(=O)CN2CCN3CCN4CCN(CC2)CC(=O)[O][Ga]([O]C(=O)C3)[O]C(=O)C4)cc1)C(=O)N1CCC[C@H]1B(O)O [6555GA] | – | 55 | degradation in aqueous solution [2]: did not observe any sign of degradation; IC50 [3]: > 100000 nM; IC50 [4]: 3600 nM
DOTA[(Cu(II)]-Ser-D-Ala-boroPro [6509CU] | 128 | – | IC50 ([1]; Z-Gly-Pro-AMC, 1.2 nM enzyme): 128 nM

Now from value to compound, other results behind:

IC50 (recombinant human FAP) [nM] | IC50 [1] [nM] | Compound | further results
1.6 | 1.6 | C[C@@H](NC(=O)c1ccc(NC(=O)CN2CCN(CC(=O)O)CCN(CC(=O)O)CCN(CC(=O)O)CC2)cc1)C(=O)N1CCC[C@H]1B(O)O [compound 6572, DOTA-PABA-D-Ala-boroPro] | –
3.2 | 2.9 | N[C@@H](CCCCNC(=O)CN1CCN(CC(=O)O)CCN(CC(=O)O)CCN(CC(=O)O)CC1)C(=O)N1CCC[C@H]1B(O)O [compound 6549, Lys(DOTA)-boroPro] | –
6.9 | – | CC(C)[C@H](NC(=O)CNC(=O)CN1CCN(CC(=O)O)CCN(CC(=O)O)CCN(CC(=O)O)CC1)C(=O)N[C@H](C)C(=O)N1CCC[C@H]1B(O)O [compound 6521, DOTA-Gly-Val-D-Ala-boroPro] | IC50 ([1]; Z-Gly-Pro-AMC, 1.2 nM enzyme): 6.9 nM
2.7 | – | C[C@@H](NC(=O)c1ccc(NNC(=O)CN2CCN(CC(=O)O)CCN(CC(=O)O)CCN(CC(=O)O)CC2)cc1)C(=O)N1CCC[C@H]1B(O)O [4536B, DOTA-HyBz-D-Ala-boroPro] | –
8.8 | 8.8 | C[C@@H](NC(=O)c1ccc(NNC(=O)CCNC(=O)CN2CCN(CC(=O)O)CCN(CC(=O)O)CCN(CC(=O)O)CC2)cc1)C(=O)N1CCC[C@H]1B(O)O [6488S, DOTA-betaAla-HyBz-D-Ala-boroPro] | –
2.4 | 2.4 | C[C@@H](NC(=O)c1ccc(CNC(=O)CN2CCN(CC(=O)O)CCN(CC(=O)O)CCN(CC(=O)O)CC2)nc1)C(=O)N1CCC[C@H]1B(O)O [compound 6556, DOTA-aminomethyl-Nic-D-Ala-boroPro] | –
